# The source made the active and inactive calls. The calls are words filed in the database; no cut-off is given here.
# Columns and labels:
# [1] = Inhibition of Staphylococcus aureus sortase A using Abz-LPATG-Dap(DNP)-NH2 as substrate preincubated for 1 hr followed by substrate addition by FRET assay
# Staphylococcus aureus [2] = assay: Antibacterial activity against Staphylococcus aureus assessed as inhibition of bacterial invasion in HEK293T cells at 100 uM measured after 2 hrs by flow cytometry relative to control; format: functional, HEK-293T; parameters: scale not given: the % may be the effect or the level left
# Staphylococcus aureus [3] = assay: Antibiofilm activity against Staphylococcus aureus assessed as inhibition of biofilm formation measured after 15 to 18 hrs in the presence of quercetin by crystal violet staining assay; format: functional, organism-based
# Staphylococcus aureus [4] = assay: Antibacterial activity against Staphylococcus aureus assessed as inhibition of bacterial invasion in HEK293T cells at 25 uM measured after 2 hrs by flow cytometry relative to control; format: functional, HEK-293T; parameters: scale not given: the % may be the effect or the level left
# Staphylococcus aureus [5] = assay: Antibacterial activity against Staphylococcus aureus assessed as inhibition of bacterial invasion in HEK293T cells at 50 uM measured after 2 hrs by flow cytometry relative to control; format: functional, HEK-293T; parameters: scale not given: the % may be the effect or the level left
# Staphylococcus aureus [6] = assay: Antibacterial activity against Staphylococcus aureus assessed as inhibition of bacterial invasion in HEK293T cells at 6.25 uM measured after 2 hrs by flow cytometry relative to control; format: functional, HEK-293T; parameters: scale not given: the % may be the effect or the level left
# Staphylococcus aureus [7] = assay: Antibacterial activity against Staphylococcus aureus assessed as inhibition of bacterial invasion in HEK293T cells at 12.5 uM measured after 2 hrs by flow cytometry relative to control; format: functional, HEK-293T; parameters: scale not given: the % may be the effect or the level left
# Staphylococcus aureus [8] = assay: Antibiofilm activity against Staphylococcus aureus assessed as inhibition of biofilm formation measured after 15 to 18 hrs by crystal violet staining assay; format: functional, organism-based
# Staphylococcus aureus [9] = assay: Inhibition of Staphylococcus aureus sortase A assessed as reduction in SpA expression at 100 uM measured after overnight incubation by flow cytometry relative to control
# Staphylococcus aureus [10] = assay: Binding affinity to staphylococcus aureus sortase A assessed as covalent adduct formation by UPLC-TOF-MS analysis
# Staphylococcus aureus [11] = assay: Binding affinity to staphylococcus aureus sortase A assessed as covalent adduct formation at Cys184 by LC-MS/MS analysis
# Staphylococcus aureus [12] = assay: Binding affinity to staphylococcus aureus sortase A assessed as increase in molecular mass by LC-MS/MS analysis
Compound,IC50 [1],also measured
COc1ccc(/C=C(\C#N)c2ccc(-c3oc4ccccc4c3C(=O)NCC(C)C)cc2)cc1,11.9 µM,
CC(C)CNC(=O)c1c(-c2ccc(/C(C#N)=C/c3ccc(OCc4ccccc4)c(OCc4ccccc4)c3)cc2)oc2ccccc12,3.3 µM,Activity (Staphylococcus aureus [2]): 24%; IC50 (Staphylococcus aureus [3]): 2.08 µM; Activity (Staphylococcus aureus [4]): 16%; Activity (Staphylococcus aureus [5]): 19.1%; Activity (Staphylococcus aureus [6]): 2.9%; Activity (Staphylococcus aureus [7]): 7.4%; IC50 (Staphylococcus aureus [8]): 2.1 µM; inhibition (Staphylococcus aureus [9]): 26.5%
COc1cccc2c(C(=O)NCC(C)C)c(-c3ccc(/C(C#N)=C/c4ccc(Br)cc4)cc3)oc12,15.5 µM,
COc1ccc(/C=C(\C#N)c2ccc(-c3oc4c(OC)cccc4c3C(=O)NCC(C)C)cc2)cc1,12.1 µM,
COc1cccc2c(C(=O)NCC(C)C)c(-c3ccc(/C(C#N)=C/c4ccc(C)c(C)c4)cc3)oc12,> 100 µM,
CC(C)CNC(=O)c1c(-c2ccc(/C(C#N)=C/c3ccc(Br)cc3)cc2)oc2ccc(Cl)cc12,16.4 µM,
COc1cccc2c(C(=O)NCC(C)C)c(-c3ccc(/C(C#N)=C/c4ccccc4)cc3)oc12,11.9 µM,
COc1ccc(/C=C(\C#N)c2ccc(-c3oc4c(OC)cccc4c3C(=O)NCC(C)C)cc2)cc1OC,14.5 µM,
COc1ccc(/C=C(\C#N)c2ccc(-c3oc4ccc(Cl)cc4c3C(=O)NCC(C)C)cc2)cc1,64.1 µM,
CC(C)CNC(=O)c1c(-c2ccc(/C(C#N)=C/c3ccccc3)cc2)oc2ccc(Cl)cc12,29.9 µM,
CC(C)CNC(=O)c1c(-c2ccc(/C(C#N)=C/c3ccccc3C(=O)O)cc2)oc2ccccc12,9.7 µM,
CCc1ccc(/C=C(\C#N)c2ccc(-c3oc4ccccc4c3C(=O)NCC(C)C)cc2)cc1,9.4 µM,
COc1ccc(/C=C(\C#N)c2ccc(-c3oc4ccccc4c3C(=O)NCC(C)C)cc2)cc1OC,9.6 µM,
COc1cccc2c(C(=O)NCC(C)C)c(-c3ccc(/C(C#N)=C/c4ccccc4C(=O)O)cc3)oc12,28.4 µM,
CCc1ccc(/C=C(\C#N)c2ccc(-c3oc4ccc(Cl)cc4c3C(=O)NCC(C)C)cc2)cc1,13.8 µM,
C=C(C#N)c1ccc(-c2oc3ccccc3c2C(=O)NCC(C)C)cc1,15.2 µM,Activity (Staphylococcus aureus [10]): Active; Activity (Staphylococcus aureus [11]): Active; Activity (Staphylococcus aureus [12]): 344 Da
CC(C)CNC(=O)c1c(-c2ccc(C(C#N)Cc3ccc(O)cc3)cc2)oc2ccccc12 (stereo unspecified),7.9 µM,Activity (Staphylococcus aureus [2]): 2.8%; IC50 (Staphylococcus aureus [8]): 14.3 µM
COc1ccc(OC)c(/C=C(\C#N)c2ccc(-c3oc4ccccc4c3C(=O)NCC(C)C)cc2)c1,21.8 µM,
COc1cccc2c(C(=O)NCC(C)C)c(-c3ccc(/C(C#N)=C/c4ccc(C)cc4)cc3)oc12,10.1 µM,
CC(C)CNC(=O)c1c(-c2ccc(/C(C#N)=C/c3ccc(C(F)(F)F)cc3)cc2)oc2ccccc12,12.2 µM,

Compound,IC50 [1],also measured
COc1cccc2c(C(=O)NCC(C)C)c(-c3ccc(/C(C#N)=C/c4ccc(Cl)cc4)cc3)oc12,5.9 µM,
Cc1ccc(/C=C(\C#N)c2ccc(-c3oc4ccc(Cl)cc4c3C(=O)NCC(C)C)cc2)cc1C,> 100 µM,
COc1ccc(OC)c(/C=C(\C#N)c2ccc(-c3oc4ccc(Cl)cc4c3C(=O)NCC(C)C)cc2)c1,15.5 µM,
CC(C)CNC(=O)c1c(-c2ccc(C(C#N)Cc3ccc(OCc4ccccc4)cc3)cc2)oc2ccccc12 (stereo unspecified),15 µM,
CC(C)CNC(=O)c1c(-c2ccc(/C(C#N)=C/c3ccc(Cl)cc3)cc2)oc2ccccc12,9.8 µM,
Cc1cc(C)c(/C=C(\C#N)c2ccc(-c3oc4ccccc4c3C(=O)NCC(C)C)cc2)c(C)c1,32.2 µM,
COc1ccc(OC)c(/C=C(\C#N)c2ccc(-c3oc4c(OC)cccc4c3C(=O)NCC(C)C)cc2)c1,52.8 µM,
CC(C)CNC(=O)c1c(-c2ccc(/C(C#N)=C/c3ccc(Cl)cc3)cc2)oc2ccc(Cl)cc12,6.8 µM,Activity (Staphylococcus aureus [2]): 4%; IC50 (Staphylococcus aureus [8]): 54.2 µM
CC(C)CNC(=O)c1c(-c2ccc(C(C#N)Cc3ccc(O)c(O)c3)cc2)oc2ccccc12 (stereo unspecified),13.7 µM,
Cc1ccc(/C=C(\C#N)c2ccc(-c3oc4ccc(Cl)cc4c3C(=O)NCC(C)C)cc2)cc1,47.1 µM,
CC(C)CNC(=O)c1c(-c2ccc(/C(C#N)=C/c3ccc(F)cc3)cc2)oc2ccccc12,19.7 µM,
CCc1ccc(/C=C(\C#N)c2ccc(-c3oc4c(OC)cccc4c3C(=O)NCC(C)C)cc2)cc1,48.6 µM,
CC(C)CNC(=O)c1c(-c2ccc(/C(C#N)=C/c3ccc(OCc4ccccc4)cc3)cc2)oc2ccccc12,6 µM,
Cc1cc(C)c(/C=C(\C#N)c2ccc(-c3oc4ccc(Cl)cc4c3C(=O)NCC(C)C)cc2)c(C)c1,37.9 µM,
CC(C)CNC(=O)c1c(-c2ccc(/C(C#N)=C/c3ccccc3)cc2)oc2ccccc12,8.8 µM,Activity (Staphylococcus aureus [2]): 17.9%; IC50 (Staphylococcus aureus [8]): 19.7 µM
COc1ccc(/C=C(\C#N)c2ccc(-c3oc4ccc(Cl)cc4c3C(=O)NCC(C)C)cc2)cc1OC,49.1 µM,
CC(C)CNC(=O)c1c(-c2ccc(/C(C#N)=C/c3ccc(Br)cc3)cc2)oc2ccccc12,19.1 µM,
Cc1ccc(/C=C(\C#N)c2ccc(-c3oc4ccccc4c3C(=O)NCC(C)C)cc2)cc1C,17.5 µM,
Cc1ccc(/C=C(\C#N)c2ccc(-c3oc4ccccc4c3C(=O)NCC(C)C)cc2)cc1,14.1 µM,

# Source: ChEMBL document CHEMBL5046250, “Discovery of Sortase A covalent inhibitors with benzofuranene cyanide structures as potential antibacterial agents against Staphylococcus aureus” (Eur J Med Chem, 2022)
